Columns and labels:
[1] = VA-HIT trial: percent change in plasma lipids with gemfibrozil vs placebo; format: in vivo, men; conditions: for Effect on HDL-C level (in words): compared to controls treated with placebo
Method: Lipoproteins levels and triglyceride levels are measured and assessed using routine methods known in the art. Commercially available kits and assays may be used to evaluate the level of HDL-C, LDL-C and level of triglyceride.
(§1) This study, the Veterans Administration HDL-C Intervention Trial (VA-HIT), was a seven year, 20 center, randomized, placebo-controlled, double blind secondary prevention trial designed to determine if a fibric acid (e.g., gemfibrozil) reduced the incidence of myocardial infarction (MI) and CHD death in male patients who have low levels of both HDL-C and LDL-C. […] Primary endpoints and the secondary endpoint, stroke, were adjudicated by blinded committees using standard criteria. Gemfibrozil (1200mg/day, orally) was selected with the goal of raising HDL-C and lowering triglycerides (TG) without affecting LDL-C.
(§2) “Low HDL-C” was defined as less than 40 mg/dL and “low LDL-C” was defined as less than 140 mg/dL values which are based on the entrance lipid criteria for the population enrolled in VA-HIT. With these lipid criteria, the mean entrance value at baseline of HDL-C was 32 mg/dL and of LDL-C was 111 mg/dL.
(§3) 2531 patients were enrolled and followed for a median of 5 years. Compliance, lipid changes, endpoints rates, losses to follow-up, and crossovers to active treatment have been consistent with the original projections. At baseline, the mean age was 64 yrs; average lipid values were, in mg/dL: HDL-C 32; TG 161; LDL-C 111; total cholesterol 176. (For comparison, the mean baseline LDL-C in recent major secondary prevention trials was 189 in the Scandinavian Simvastatin Survival Study, 139 in the Cholesterol and Recurrent Events study, and 150 in the Long-Term Intervention with Pravastatin in Ischemic Disease study). The mean body mass index was 29±5. The prevalence of diabetes was 31% and of hypertension 57%. Aspirin and beta blockers were used by 82%, and 43% of patients, respectively.
(§4) VA-HIT was a major clinical trial to investigate whether lipid therapy benefits people with heart disease whose primary lipid abnormality is a low level of HDL-C. The VA-HIT study enrolled 2531 male veterans with heart disease who had low levels of LDL-C cholesterol and low levels of HDL-C cholesterol. The average LDL-C level was 111 mg/dL and HDL-C was 32 mg/dL. Patients were randomly assigned to receive either gemfibrozil or a placebo.
(§5) 2531 men with CHD enrolled in trial 1991-1993. The trial ended 7/31/98 with median follow-up of 5.1 years. Vital status of patients known is 99.2%. 71% remained on assigned therapy at end of trial which is about the average in a long trial.

[2] = VA-HIT trial: CHD death, nonfatal MI, stroke and other clinical endpoints, adverse events; format: in vivo; conditions: for Relative risk reduction, CHD death/nonfatal MI (heart attacks and cardiac deaths): primary endpoint, p=0.0063
From the text: as §1, §2, §3, §4
The reduction in the incidence or severity of vascular disease was determined by comparing data from individuals undergoing the methods of the present invention to those who were not. Data regarding the incidence or occurrence of a vascular event including death were obtained from control patients having the same or similar disease states under the same or similar conditions as the individual undergoing the methods of the present invention. The control patient received a placebo, as opposed to the test patients who received the lipid modifying drug.
as §5

[3] = VA-HIT subgroup analysis: diabetes and hyperinsulinemia, CHD and stroke events, mortality; format: in vivo, men; design: Overall Risk Reduction with Gemfibrozil (cardiovascular or cerebrovascular event) / Overall Risk Reduction with Gemfibrozil: concentration or dose not given beside the values; conditions: for Five Year Event Rate, Stroke / Five Year Event Rate, CHD: Gemfibrozil Group
From the text: Determining whether an individual has Type 2 diabetes and/or hyperinsulinemia can be done using assays that are well known in the art. Several assays are commercially available. The levels that define whether an individual has Type 2 diabetes or hyperinsulinemia vary depending on the type of assay used. An example of an assay that can measure glucose tolerance or glucose levels is one that uses glucose oxidase as a reagent. Using such a test, levels of fasting glucose of greater than or equal to about 126 mg/dL characterize a type 2 diabetic. An assay referred to as “Coat-A-Count” (Diagnostic Products, Los Angeles, Calif.) is an example of an assay that measures insulin. Levels of fasting insulin above about 40 μU/mL using the Coat-A-Count assay are levels that characterize an individual with hyperinsulinemia. For the data described in Example 2, insulin resistance (hyperinsulinemia) was defined by the levels of insulin determined in the Framingham Offspring Population. Meigs J B, et al., Metabolic Risk Factors Worsen Continuously Across the Spectrum of Nondiabetic Glucose Tolerance, The Framingham Offspring Study. Ann Intern Med 128:524-533 (1998). Subjects, described in Example 2, were designated as diabetic by having a history of diabetes or a fasting plasma glucose of about 126 mg/dL or greater and as being hyperinsulinemic with a fasting plasma insulin of about 40 μU/mL or greater. This value of insulin marked the 90th percentile of values for subjects with normal glucose tolerance in the Framingham Offspring Study. This value also corresponded to the level of insulin at which there was a significant increase in CHD events in Example 2.
Fibric acid decreases incidence of vascular events in diabetic patients (e.g., events that cause the heart to have irregular rhythms such as ventricular fibrillation, ventricular tachycardia, asystole, and includes, for example, myocardial infarction, angina, and death).
Diabetes mellitus (DM) has long been recognized as a major risk factor for a vascular atherothrombotic event, most particularly coronary heart disease and cerebrovascular disease. […] Although patients with DM were not singled out as a specific recruitment target (i.e., not a specific target for fibrate therapy in VA-HIT), patients with DM frequently have a low HDL-C and, thus, were clearly eligible for VA-HIT and treatment with the fibrate, genfibrozil.
Thus, 31% of VA-HIT patients had diabetes. […] There is evidence that patients with high insulin levels (i.e., patients with “hyperinsulinemia” or “insulin resistance”) but without overt DM have as high a risk of coronary heart disease as is associated with DM itself. Consequently, 47% of patients in VA-HIT had either DM or hyperinsulinemia and in this large subgroup of patients, both coronary heart disease (CHD) events and stroke were higher than in the remainder of VA-HIT patients and the benefit of fibrate therapy was greater.

[4] = gemfibrozil 1200 mg/day orally, men with CHD, low HDL-C and low LDL-C, statistically significant difference vs placebo

Structure (SMILES): Cc1ccc(C)c(OCCCC(C)(C)C(=O)O)c1 [Gemfibrozil, 5-(2,5-dimethylphenoxy)-2,2-dimethylpentanoic acid]
- Effect on HDL-C level (in words) [1]: significantly raised
- Effect on HDL-C level (in words) ([1]; listed as gemfibrozil): significantly increased
- Effect on LDL-C level (in words) ([1]; compared to placebo): did not lower
- Effect on triglycerides (in words) ([1]; compared to placebo): lowered
- Effect on LDL-C level (in words) ([1]; compared to placebo, listed as gemfibrozil): no effect
- Percent change in Lipids: LDL-C ([1]; gemfibrozil 1200 mg/day orally, men with CHD, low HDL-C and low LDL-C, not marked significant): +3.6%
- Percent change in Lipids: HDL-C [1, 4]: +7.5%
- Percent change in Lipids: Triglycerides [1, 4]: −24.5%
- Percent change in Lipids: total cholesterol [1, 4]: −2.9%
- Effectiveness in subgroups (in words) ([2]; both diabetics and non-diabetics, younger as well as older patients): effective
- New or recurrent CHD events, including nonfatal MI, CHD death, certain forms of stroke or TIA (in words) ([2]; gemfibrozil 1200 mg/day): significant reduction
- Primary endpoint CHD death/nonfatal MI, rate in treatment group ([2]; gemfibrozil 1200 mg/day, median follow-up 5.1 years, placebo 22%): 17%
- Major adverse events (deaths from any cause and cancer monitored) ([2]; gemfibrozil 1200 mg/day, seven year study): not associated with any major adverse events
- Incidence rate: carotid endarterectomy ([2]; gemfibrozil group, placebo 3.5%): 1.3%
- Incidence rate: transient ischemia attack (TIA) ([2]; gemfibrozil group, placebo 4.2%): 1.7%
- Incidence rate: total reported stroke ([2]; gemfibrozil group, placebo 7.0%): 5.0%
- Incidence rate: hospitalization for congestive heart failure ([2]; gemfibrozil group, placebo 13.3%): 10.6%
- Reduction in combined endpoint of heart attacks, cardiac deaths, and strokes ([2]; gemfibrozil vs placebo, p=0.0011): 24%
- Relative risk reduction, CHD death/nonfatal MI (heart attacks and cardiac deaths) ([2]; gemfibrozil vs placebo, listed as GEMFIBROZIL): 22%
- Relative risk reduction, CHD death/nonfatal MI (heart attacks and cardiac deaths) ([2]; gemfibrozil vs placebo, listed as gemfibrozil): 22%
- Number of patients needed to be treated to prevent one heart attack, cardiac death, or stroke ([2]; over a time period (e.g., between 1 and 5 years)): 18 patients
- RRR (relative risk reduction with gemfibrozil), All-Cause Mortality ([3]; Diabetes + Hyperinsulinemia alone, N 1157, P 0.021): 26%
- RRR (relative risk reduction with gemfibrozil), CHD Death ([3]; Diabetes, N 769, P 0.016): 41%
- RRR (relative risk reduction with gemfibrozil), All-Cause Mortality ([3]; Diabetes, N 769, P 0.059): 25%
- Five Year Event Rate, Stroke ([3]; subgroup All Others, placebo 4.0): 3.2%
- Five Year Event Rate, CHD ([3]; subgroup All Others, placebo 16.6): 15.3%
- Five Year Event Rate, Stroke ([3]; subgroup Diabetes, placebo 10.5): 6.6%
- Five Year Event Rate, CHD ([3]; subgroup Diabetes, placebo 29.4): 21.2%
- Five Year Event Rate, Stroke ([3]; subgroup Hyperinsulinemia (includes hyperinsulinemia + diabetes), placebo 8.1): 6.2%
- Five Year Event Rate, CHD ([3]; subgroup Hyperinsulinemia (includes hyperinsulinemia + diabetes), placebo 27.7): 20.9%
- Five Year Event Rate, Stroke ([3]; subgroup Hyperinsulinemia alone, placebo 4.3): 4.7%
- Five Year Event Rate, CHD ([3]; subgroup Hyperinsulinemia alone, placebo 23.1): 16.8%
- 5-year incidence rate of all-cause mortality (in words) ([3]; patients with DM and isolated hyperinsulinemia analysed together): significantly reduce
- Overall Risk Reduction with Gemfibrozil ([3]; subgroup All Others): 10.3%
- Overall Risk Reduction with Gemfibrozil (cardiovascular or cerebrovascular event) ([3]; subgroup Diabetes): 30.3%
- Overall Risk Reduction with Gemfibrozil ([3]; subgroup Hyperinsulinemia (includes hyperinsulinemia + diabetes)): 24.2%
- Overall Risk Reduction with Gemfibrozil ([3]; subgroup Hyperinsulinemia alone): 21.7%
- Reduction of CHD death (in words) ([3]; subgroup of patients with DM and hyperinsulinemia): particularly effective

Source: patent US20020123524A1, “Treatment of vascular events using lipid-modifying compositions” (priority 1998, published 2002)
